From patent US8217073B2, “Pyrrole derivatives as therapeutic compounds” (Myrexis, Inc., priority 2005, dated 2012)
Where “and” joins values, the source holds several entries; their conditions need not be identical. Identical values can stand only once.

How the values were obtained:
Aβ42 secretion = Aβ42 secretion by H4 cells expressing APP695, sandwich ELISA; format: cell-based, human; conditions: medium collected at 24 or 48 hours, several numbers = independent sets of assays; for % Inhibition of Aβ42 Secretion @ 100 μM / inhibition at 100 µM: test compound 100 μM vs DMSO control; for IC50: about 1 μM to about 100 μM
Experimental: (§1) The present invention provides compositions and methods for lowering Aβ42 levels. To test whether compounds and compositions are capable of modulating Aβ levels in cultured cells, sandwich enzyme-linked immunosorbent assays (ELISAs) are employed to measure secreted Aβ (Aβ42 and/or Aβ40 levels). In this example, H4 cells expressing wide type APP695 are seeded at 200,000 cells per well in 6 well plates, and incubated at 37° C. with 5% CO2 overnight. Cells are treated with 1.5 ml medium containing vehicle (DMSO) or a test compound at 1.25 μM, 2.5 μM, 5.0 μM and 10.0 μM (as well as other concentration if desirable) for 24 hours or 48 hours. The supernatant from treated cells is collected into eppendorf tubes and frozen at −80° C. for future analysis.
(§2) The amyloid peptide standard is reconstituted and frozen samples are thawed. The samples and standards are diluted with appropriate diluents and the plate is washed 4 times with Working Wash Buffer and patted dry on a paper towel. 100 μL per well of peptide standards, controls, and dilutions of samples to be analyzed is added. The plate is incubated for 2 hours while shaking on an orbital plate shaker at RT. The plate is then washed 4 times with Working Wash Buffer and patted dry on a paper towel. Detection Antibody Solution is poured into a reservoir and 100 μL/well of Detection Antibody Solution is immediately added to the plate. The plate is incubated at RT for 2 hours while shaking and then washed four times with Working Wash Buffer and patted dry on a paper towel. Secondary Antibody Solution is then poured into a reservoir and 100 μL/well of Secondary Antibody Solution is immediately added to the plate. The plate is incubated at RT for 2 hours with shaking, washed 5 times with Working Wash Buffer, and patted dry on a paper towel.
(§3) 100 μL of stabilized chromogen is added to each well and the liquid in the wells begins to turn blue. The plate is incubated for 30 minutes at room temperature and in the dark. 100 μL of stop solution is added to each well and the plate is tapped gently to mix resulting in a change of solution color from blue to yellow. The absorbance of each well is read at 450 nm having blanked the plate reader against a chromogen blank composed of 100 μL each of stabilized chromogen and stop solution. The plate is read within 2 hours of adding the stop solution. The absorbance of the standards is plotted against the standard concentration and the concentrations of unknown samples and controls are calculated.
(§4) The present invention provides compositions and methods for lowering Aβ42 levels. To test whether compounds and compositions are capable of modulating Aβ levels, sandwich enzyme-linked immunosorbent assays (ELISAs) is employed to measure secreted Aβ42 and/or Aβ40 levels. In this example, H4 cells expressing wide type APP695 are seeded at 200,000 cells per well in 6 well plates, and incubated at 37° C. with 5% CO2 overnight. Cells are treated with 1.5 mL medium containing vehicle (DMSO) or a test compound at 1.25 μM, 2.5 μM, 5.0 μM and 10.0 μM concentration for 24 hours or 48 hours. The supernatant from treated cells is collected into eppendorf tubes and frozen at −80° C. for future analysis.
(§5) 130 μL per well of samples, standards, and blanks is added to a 96-well polypropylene plate. […] of samples, standards, and blanks from the polypropylene plate is added to the antibody-coated plates. The strip-holder with the appropriate number of strips is applied to the antibody-coated plates and the strips are covered with an adhesive sealer. The plate is then incubated 3 hours at room temperature while shaking on an orbital plate shaker.
(§6) The first antibody solution is prepared with Conjugate Diluent 1 at 1:100 ratio. Each well of the antibody-coated plates is washed 5 times with 400 μL washing solution and 100 μL of the prepared first antibody solution is added to each well. […]

Aβ40 secretion = Aβ40 secretion by H4 cells expressing APP695, sandwich ELISA; format: cell-based, human; conditions: medium collected at 24 or 48 hours, several numbers = independent sets of assays; for IC50: about 1 μM to about 100 μM; for inhibition at 100 µM / % Inhibition of Aβ40 Secretion @ 100 μM: test compound 100 μM vs DMSO control
Experimental: as §1, §2, §3, §4, §5, §6

IC50 (Aβ40 secretion; Homo sapiens) [µM]	IC50 (Aβ40 secretion)	IC50 (Aβ42 secretion; Homo sapiens) [µM]	IC50 (Aβ42 secretion) [µM]	SMILES	% Inhibition of Aβ42 Secretion @ 100 μM (Aβ42 secretion)	inhibition at 100 µM (Aβ42 secretion; Homo sapiens) [%]	inhibition at 100 µM (Aβ40 secretion; Homo sapiens) [%]	% Inhibition of Aβ40 Secretion @ 100 μM (Aβ40 secretion)
> 100	67 µM	–	–	Cc1c(-c2ccccc2)cc(-c2ccccc2)n1-c1ccc(CCCC(=O)O)cc1 [Compound 1, 4-[4-(2-Methyl-3,5-diphenyl-pyrrol-1-yl)-phenyl]-butyric acid]	101% and 99% and 78%	–	–	–
> 100	–	48	–	Cc1c(-c2ccccc2)cc(-c2ccccc2)n1-c1cccc(C(=O)O)c1 [Compound 2, 3-(2-Methyl-3,5-diphenyl-pyrrol-1-yl)-benzoic acid]	–	76	36	–
98	–	37	–	Cc1c(-c2ccccc2)cc(-c2ccccc2)n1-c1ccc(Cl)c(C(=O)O)c1 [Compound 3, 2-Chloro-5-(2-methyl-3,5-diphenyl-pyrrol-1-yl)-benzoic acid]	–	89	52	–
> 100	–	29	–	COc1ccc(C(=O)O)cc1-n1c(-c2ccccc2)cc(-c2ccccc2)c1C [Compound 4, 4-Methoxy-3-(2-methyl-3,5-diphenyl-pyrrol-1-yl)-benzoic acid]	–	84	22	–
> 100	–	100	–	Cc1c(-c2ccccc2)cc(-c2ccccc2)n1-c1cccc(CCC(=O)O)c1 [Compound 5, 3-[3-(2-Methyl-3,5-diphenyl-pyrrol-1-yl)-phenyl]-propionic acid]	–	55	31	–
> 100	–	30	–	O=C(O)c1cccc(-n2cc(-c3ccccc3)cc2-c2ccccc2)c1 [Compound 6, 3-(2,4-Diphenyl-pyrrol-1-yl)-benzoic acid]	–	74	32	–
28	–	15	–	Cc1c(-c2cccc(C(F)(F)F)c2)cc(-c2ccccc2)n1-c1cccc(CCC(=O)O)c1 [Compound 9, 3-{3-[2-Methyl-5-phenyl-3-(3-trifluoromethyl-phenyl)-pyrrol-1-yl]-phenyl}-propionic acid]	–	82	86	–
> 100	69 µM and 68 µM	–	–	CCc1c(-c2ccccc2)cc(-c2ccccc2)n1-c1cccc(C(=O)O)c1 [Compound 11, 3-(2-Ethyl-3,5-diphenyl-pyrrol-1-yl)-benzoic acid]	94% and 78%	92	–	–
> 100	–	34	–	CCc1c(-c2ccccc2)cc(-c2ccccc2)n1-c1cccc(CCC(=O)O)c1 [Compound 12, 3-[3-(2-Ethyl-3,5-diphenyl-pyrrol-1-yl)-phenyl]-propionic acid]	–	85	27	–
> 100	–	12	–	CCc1c(-c2ccccc2)cc(-c2ccccc2)n1-c1ccc(CCCC(=O)O)cc1 [Compound 13, 4-[4-(2-Ethyl-3,5-diphenyl-pyrrol-1-yl)-phenyl]-butyric acid]	–	83	14	–
82	–	21	–	Cc1c(-c2ccccc2)cc(-c2ccc(C(F)(F)F)cc2)n1-c1cccc(CCC(=O)O)c1 [Compound 15, 3-{3-[2-Methyl-3-phenyl-5-(4-trifluoromethyl-phenyl)-pyrrol-1-yl]-phenyl}-propionic acid]	–	96	63	–
> 100	–	10	–	Cc1c(-c2ccccc2)cc(-c2ccc(Cl)c(Cl)c2)n1-c1cccc(C(=O)O)c1 [Compound 17, 3-[5-(3,4-Dichloro-phenyl)-2-methyl-3-phenyl-pyrrol-1-yl]-benzoic acid]	–	83	10	–
> 100	–	21	–	CCOC(=O)c1cc(CCc2ccccc2)n(-c2cccc(C(=O)O)c2)c1-c1ccccc1 [Compound 20, 1-(3-Carboxy-phenyl)-5-phenethyl-2-phenyl-1H-pyrrole-3-carboxylic acid ethyl ester]	–	95	49	–
70	–	23	–	O=C(O)c1cccc(-n2c(CCc3ccccc3)ccc2-c2ccccc2)c1 [Compound 23, 3-(2-Phenethyl-5-phenyl-pyrrol-1-yl)-benzoic acid]	–	77	67	–

Second part, the compound before the results:

SMILES	IC50 (Aβ40 secretion; Homo sapiens) [µM]	IC50 (Aβ40 secretion)	IC50 (Aβ42 secretion; Homo sapiens) [µM]	IC50 (Aβ42 secretion) [µM]	% Inhibition of Aβ42 Secretion @ 100 μM (Aβ42 secretion)	inhibition at 100 µM (Aβ42 secretion; Homo sapiens) [%]	inhibition at 100 µM (Aβ40 secretion; Homo sapiens) [%]	% Inhibition of Aβ40 Secretion @ 100 μM (Aβ40 secretion)
O=C(O)CCCc1ccc(-n2cc(-c3ccccc3)cc2-c2ccccc2)cc1 [Compound 7, 4-[4-(2,4-Diphenyl-pyrrol-1-yl)-phenyl]-butyric acid]	> 100	–	52	–	–	76	7	–
Cc1c(-c2cccc(C(F)(F)F)c2)cc(-c2ccccc2)n1-c1cccc(C(=O)O)c1 [Compound 8, 3-[2-Methyl-5-phenyl-3-(3-trifluoromethyl-phenyl)-pyrrol-1-yl]-benzoic acid]	–	–	–	–	80%	94	–	88% and 64%
Cc1c(-c2cccc(C(F)(F)F)c2)cc(-c2ccccc2)n1-c1ccc(CCCC(=O)O)cc1 [Compound 10, 4-{4-[2-Methyl-5-phenyl-3-(3-trifluoromethyl-phenyl)-pyrrol-1-yl]-phenyl}-butyric acid]	11	–	15	–	–	79	97	–
Cc1c(-c2ccccc2)cc(-c2ccc(C(F)(F)F)cc2)n1-c1cccc(C(=O)O)c1 [Compound 14, 3-[2-Methyl-3-phenyl-5-(4-trifluoromethyl-phenyl)-pyrrol-1-yl]-benzoic acid]	–	–	–	–	101% and 99% and 92%	96	–	–
Cc1c(-c2ccccc2)cc(-c2ccc(C(F)(F)F)cc2)n1-c1ccc(CCCC(=O)O)cc1 [Compound 16, 4-{4-[2-Methyl-3-phenyl-5-(4-trifluoromethyl-phenyl)-pyrrol-1-yl]-phenyl}-butyric acid]	–	–	5	10	102%	97	78	93%
Cc1c(-c2ccccc2)cc(-c2ccc(Cl)c(Cl)c2)n1-c1cccc(CCC(=O)O)c1 [Compound 18, 3-{3-[5-(3,4-Dichloro-phenyl)-2-methyl-3-phenyl-pyrrol-1-yl]-phenyl}-propionic acid]	> 100	–	10	–	–	94	41	–
Cc1c(-c2ccccc2)cc(-c2ccc(Cl)c(Cl)c2)n1-c1ccc(CCCC(=O)O)cc1 [Compound 19, 4-{4-[5-(3,4-Dichloro-phenyl)-2-methyl-3-phenyl-pyrrol-1-yl]-phenyl}-butyric acid]	> 100	65 µM	–	–	109%	95	–	42% and 78%
CCOC(=O)c1cc(CCc2ccccc2)n(-c2cccc(CCC(=O)O)c2)c1-c1ccccc1 [Compound 21, 1-[3-(2-Carboxy-ethyl)-phenyl]-5-phenethyl-2-phenyl-1H-pyrrole-3-carboxylic acid ethyl ester]	> 100	–	55	–	–	66	38	–
CCOC(=O)c1cc(CCc2ccccc2)n(-c2ccc(CCCC(=O)O)cc2)c1-c1ccccc1 [Compound 22, 1-[4-(3-Carboxy-propyl)-phenyl]-5-phenethyl-2-phenyl-1H-pyrrole-3-carboxylic acid ethyl ester]	40	–	55	–	–	68	65	–
